Data from patent publication US20160002226A1, “PYRI[…] AND THEIR USE IN THE TREATMENT, AMELIORATION OR PREVENTION OF INFLUENZA” (F. Hoffmann-La Roche AG, priority 2014, published 2016).

What was measured:
[1] = test system: influenza A virus A/Aichi/2/68 (H3N2) on MDCK cells; test: Cytopathic effect (CPE) assay; format: cell-based; conditions: Influenza A virus, 48 hrs, the 2nd table
[2] = target: whole RNP complex of IAV strain A/PR/8/34 (Influenza A virus, UniProt P03433); test: Transcription assay (TA assay); format: biochemical; conditions: RNPs of A/PR/8/34, capped RNA substrate

SMILES	IC50 [1]	IC50 [2]
CC(C)N1CCn2c(CNCc3ccccc3-c3ccccc3)cc(=O)c(O)c2C1=O	> 50 µM	0.535 µM
CCN(Cc1ccccc1)Cc1cc(=O)c(O)c2n1CCN(C(C)C)C2=O	> 50 µM	1.56 µM
CCCN(Cc1ccc(-c2ccccc2)cc1)Cc1cc(=O)c(O)c2n1CCN(C(C)C)C2=O	> 50 µM	63.8 µM
